Source: PubChem BioAssay AID1963826 (Molecular Pharmacology Branch, DTP, NCI, 2024)

Test system: 926638-142-R-J1-PDC complex spheroid viability
Assay: Anticancer human tumor 926638-142-R-J1-PDC patient-derived endometrial carcinoma cell line growth inhibition [POLQ]
Settings: for IC50: curve of first compound; for viability, T/C: stronger effect = lower value
How it was run: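 PDC + HUVEC + MSC complex spheroids; POLQ inhibitors ± partner drugs; top conc. at/near clinical Cmax, else 10 microM (SN-38 1 microM), half-log dilutions; 37 degrees C, 5% CO2.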

[1] = second compound 0.0316 µM, first compound 0.0316 µM
[2] = second compound 0.0316 µM, first compound 0.1 µM
[3] = second compound 0.0316 µM, first compound 0.316 µM
[4] = second compound 0.0316 µM, first compound 1 µM
[5] = second compound 0.0316 µM, first compound 3.16 µM
[6] = second compound 0.0316 µM, first compound 10 µM
[7] = second compound 0.1 µM, first compound 0.0316 µM
[8] = second compound 0.1 µM, first compound 0.1 µM
[9] = second compound 0.1 µM, first compound 0.316 µM
[10] = second compound 0.1 µM, first compound 1 µM
[11] = second compound 0.1 µM, first compound 3.16 µM
[12] = second compound 0.1 µM, first compound 10 µM
[13] = second compound 0.316 µM, first compound 0.0316 µM
[14] = second compound 0.316 µM, first compound 0.1 µM
[15] = second compound 0.316 µM, first compound 0.316 µM
[16] = second compound 0.316 µM, first compound 1 µM
[17] = second compound 0.316 µM, first compound 3.16 µM
[18] = second compound 0.316 µM, first compound 10 µM
[19] = second compound 1 µM, first compound 0.0316 µM
[20] = second compound 1 µM, first compound 0.1 µM
[21] = second compound 1 µM, first compound 0.316 µM
[22] = second compound 1 µM, first compound 1 µM
[23] = second compound 1 µM, first compound 3.16 µM
[24] = second compound 1 µM, first compound 10 µM
[25] = second compound 3.16 µM, first compound 0.0316 µM
[26] = second compound 3.16 µM, first compound 0.1 µM
[27] = second compound 3.16 µM, first compound 0.316 µM
[28] = second compound 3.16 µM, first compound 1 µM
[29] = second compound 3.16 µM, first compound 3.16 µM
[30] = second compound 3.16 µM, first compound 10 µM
[31] = second compound 10 µM, first compound 0.0316 µM
[32] = second compound 10 µM, first compound 0.1 µM
[33] = second compound 10 µM, first compound 0.316 µM
[34] = second compound 10 µM, first compound 1 µM
[35] = second compound 10 µM, first compound 3.16 µM
[36] = second compound 10 µM, first compound 10 µM
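Note: spheroids exposed to drugs for one week before readout.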
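Throughout, for viability, T/C: percent viability relative to DMSO vehicle control wells set as 100%.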

With `CCc1cc2c(N3CCc4c(cc(Cn5ccnc5)cc4-c4cn(C)nc4C(F)(F)F)C3=O)ccnc2c(OC)n1` + Cc1cccc(N(C)C(=O)C2C(O)CCN2c2nc(C)cc(C(F)(F)F)c2C#N)c1 the IC50 (second compound 0.0316 µM) was 0.287 µM, the IC50 (second compound 0.1 µM) was 0.356 µM and the IC50 (second compound 0.316 µM) was 1.29 µM. For the same compound, the IC50 (second compound 1 µM) was 0.346 µM, the IC50 (second compound 3.16 µM) was 0.483 µM and the IC50 (second compound 10 µM) was 0.379 µM. The viability, T/C [1] was 76.8%, the viability, T/C [2] was 74.5% and the viability, T/C [3] was 46.7%. The viability, T/C [4] was 44.8%, the viability, T/C [5] was 38.6% and the viability, T/C [6] was 29.6%. It also gave a viability, T/C [7] of 112%, a viability, T/C [8] of 70.1% and a viability, T/C [9] of 48.3%. It also gave a viability, T/C [10] of 45.5%, a viability, T/C [11] of 41.8% and a viability, T/C [12] of 29.1%. It also gave a viability, T/C [13] of 70.8%, a viability, T/C [14] of 66.1% and a viability, T/C [15] of 59%. For the same compound, the viability, T/C [16] was 55%, the viability, T/C [17] was 40% and the viability, T/C [18] was 26.7%. The viability, T/C [19] was 83.4%, the viability, T/C [20] was 59.4% and the viability, T/C [21] was 47%. The viability, T/C [22] was 52.7%, the viability, T/C [23] was 37.3% and the viability, T/C [24] was 33%. For the same compound, the viability, T/C [25] was 87.1%, the viability, T/C [26] was 70.9% and the viability, T/C [27] was 55.5%. It also gave a viability, T/C [28] of 40.9%, a viability, T/C [29] of 32.1% and a viability, T/C [30] of 25.7%. The viability, T/C [31] was 85.9%, the viability, T/C [32] was 59.4% and the viability, T/C [33] was 58.4%. For the same compound, the viability, T/C [34] was 36.7%, the viability, T/C [35] was 34.2% and the viability, T/C [36] was 23.6%.
`COc1cc2cc(C(=O)CCC(=O)O)sc2cc1OC` + Cc1cccc(N(C)C(=O)C2C(O)CCN2c2nc(C)cc(C(F)(F)F)c2C#N)c1 was tested, and the IC50 (second compound 0.0316 µM) was over 10 µM, the IC50 (second compound 0.1 µM) was over 10 µM and the IC50 (second compound 0.316 µM) was over 10 µM. It also gave an IC50 (second compound 1 µM) of over 10 µM, an IC50 (second compound 3.16 µM) of over 10 µM and an IC50 (second compound 10 µM) of over 10 µM. For the same compound, the viability, T/C [1] was 101%, the viability, T/C [2] was 92.9% and the viability, T/C [3] was 110%. It also gave a viability, T/C [4] of 96.2%, a viability, T/C [5] of 98.3% and a viability, T/C [6] of 77.4%. The viability, T/C [7] was 104%, the viability, T/C [8] was 98.4% and the viability, T/C [9] was 99.7%. The viability, T/C [10] was 87.1%, the viability, T/C [11] was 83.2% and the viability, T/C [12] was 80.3%. For the same compound, the viability, T/C [13] was 119%, the viability, T/C [14] was 115% and the viability, T/C [15] was 109%. It also gave a viability, T/C [16] of 84.4%, a viability, T/C [17] of 98.2% and a viability, T/C [18] of 88.7%. For the same compound, the viability, T/C [19] was 99.8%, the viability, T/C [20] was 111% and the viability, T/C [21] was 76.9%. The viability, T/C [22] was 85.8%, the viability, T/C [23] was 94% and the viability, T/C [24] was 90.1%. It also gave a viability, T/C [25] of 79.5%, a viability, T/C [26] of 95.5% and a viability, T/C [27] of 99.5%. For the same compound, the viability, T/C [28] was 76.5%, the viability, T/C [29] was 110% and the viability, T/C [30] was 94.6%. For the same compound, the viability, T/C [31] was 79.5%, the viability, T/C [32] was 95.7% and the viability, T/C [33] was 94.5%. It also gave a viability, T/C [34] of 87.2%, a viability, T/C [35] of 104% and a viability, T/C [36] of 79.9%.
Work on `COc1ccc([C@@H](O)c2cc(-c3ncnc4cc(N5CCOCC5)ccc34)c(F)cc2Cl)nn1` + Cc1cccc(N(C)C(=O)C2C(O)CCN2c2nc(C)cc(C(F)(F)F)c2C#N)c1 yielded an IC50 (second compound 0.0316 µM) of 0.459 µM, an IC50 (second compound 0.1 µM) of 0.546 µM and an IC50 (second compound 0.316 µM) of 0.399 µM. For the same compound, the IC50 (second compound 1 µM) was 0.493 µM, the IC50 (second compound 3.16 µM) was 0.484 µM and the IC50 (second compound 10 µM) was 0.415 µM. It also gave a viability, T/C [1] of 76.7%, a viability, T/C [2] of 93.2% and a viability, T/C [3] of 58.1%. The viability, T/C [4] was 26.9%, the viability, T/C [5] was 12.9% and the viability, T/C [6] was 7.35%. For the same compound, the viability, T/C [7] was 99%, the viability, T/C [8] was 80.7% and the viability, T/C [9] was 74.2%. The viability, T/C [10] was 24.3%, the viability, T/C [11] was 11.5% and the viability, T/C [12] was 9.24%. For the same compound, the viability, T/C [13] was 77.3%, the viability, T/C [14] was 71.1% and the viability, T/C [15] was 57.2%. For the same compound, the viability, T/C [16] was 24.6%, the viability, T/C [17] was 13.3% and the viability, T/C [18] was 7.22%. It also gave a viability, T/C [19] of 107%, a viability, T/C [20] of 89.7% and a viability, T/C [21] of 65.9%. It also gave a viability, T/C [22] of 26.8%, a viability, T/C [23] of 14.7% and a viability, T/C [24] of 9.12%. It also gave a viability, T/C [25] of 83.5%, a viability, T/C [26] of 88.1% and a viability, T/C [27] of 57.8%. For the same compound, the viability, T/C [28] was 32.7%, the viability, T/C [29] was 12.2% and the viability, T/C [30] was 9.15%. It also gave a viability, T/C [31] of 76.5%, a viability, T/C [32] of 94% and a viability, T/C [33] of 56%. For the same compound, the viability, T/C [34] was 24%, the viability, T/C [35] was 12.9% and the viability, T/C [36] was 9.62%.
With `O=C(Nc1ccc(O)c(NS(=O)(=O)c2ccc(F)cc2)c1)c1ccc(-c2ccccc2)cc1` + Cc1cccc(N(C)C(=O)C2C(O)CCN2c2nc(C)cc(C(F)(F)F)c2C#N)c1 the IC50 (second compound 0.0316 µM) was over 10 µM, the IC50 (second compound 0.1 µM) was over 10 µM and the IC50 (second compound 0.316 µM) was over 10 µM. For the same compound, the IC50 (second compound 1 µM) was over 10 µM, the IC50 (second compound 3.16 µM) was over 10 µM and the IC50 (second compound 10 µM) was over 10 µM. It also gave a viability, T/C [1] of 93.9%, a viability, T/C [2] of 93.2% and a viability, T/C [3] of 91.6%. For the same compound, the viability, T/C [4] was 91%, the viability, T/C [5] was 90.5% and the viability, T/C [6] was 62.5%. The viability, T/C [7] was 104%, the viability, T/C [8] was 78.6% and the viability, T/C [9] was 81.2%. For the same compound, the viability, T/C [10] was 94%, the viability, T/C [11] was 90.1% and the viability, T/C [12] was 62.5%. The viability, T/C [13] was 94.3%, the viability, T/C [14] was 105% and the viability, T/C [15] was 86.6%. The viability, T/C [16] was 87.8%, the viability, T/C [17] was 94.5% and the viability, T/C [18] was 67.2%. It also gave a viability, T/C [19] of 90.3%, a viability, T/C [20] of 94.8% and a viability, T/C [21] of 88.1%. It also gave a viability, T/C [22] of 96.9%, a viability, T/C [23] of 85.6% and a viability, T/C [24] of 73.1%. For the same compound, the viability, T/C [25] was 79.6%, the viability, T/C [26] was 91.5% and the viability, T/C [27] was 82.1%. For the same compound, the viability, T/C [28] was 97.6%, the viability, T/C [29] was 95.7% and the viability, T/C [30] was 68.5%. For the same compound, the viability, T/C [31] was 79.1%, the viability, T/C [32] was 75.8% and the viability, T/C [33] was 74.6%. It also gave a viability, T/C [34] of 78.7%, a viability, T/C [35] of 80.7% and a viability, T/C [36] of 55.7%.
